According to US20240000872A1, “NOVEL BACTERIOPHAGE THAT LYSES ACINETOBACTER GENUS BACTERIA HAVING RESISTANCE TO ANTIBIOTICS” (priority 2020, published 2024):

Tested on: Acinetobacter baumannii strains
Test: Antibiotic susceptibility test (CLSI disk diffusion test method, read per CLSI 2016); for antibiotic susceptibility S/I/R: key: ‘S’ means susceptible; ‘I’ means intermediate; ‘R’ means resistant; for susceptibility category (S/I/R): key: ‘S’ means susceptible; ‘I’ means intermediate; ‘R’ means resistant
Type: cell-based
Parameters: antibiotic susceptibility test value / susceptibility test value (number given before S/I/R) / antibiotic susceptibility value: unit not given here

piperacillin-tazobactam
R: antibiotic susceptibility S/I/R (host strain YMC17/02/B87) | susceptibility category (S/I/R) (host strain YMC17/02/B87) | antibiotic susceptibility S/I/R (host strain YMC17/02/B721) | susceptibility category (S/I/R) (host strain YMC17/02/B721) | antibiotic susceptibility S/I/R (host strain YMC17/02/B4039) | susceptibility category (S/I/R) (host strain YMC17/02/B4039) | antibiotic susceptibility S/I/R (host strain YMC17/02/B4520) | susceptibility category (S/I/R) (host strain YMC17/02/B4520) | antibiotic susceptibility S/I/R (host strain YMC17/02/B8414) | susceptibility category (S/I/R) (host strain YMC17/02/B8414) | antibiotic susceptibility S/I/R (host strain YMC17/02/P523) | susceptibility category (S/I/R) (host strain YMC17/02/P523) | antibiotic susceptibility S/I/R (host strain YMC17/02/R541) | susceptibility category (S/I/R) (host strain YMC17/02/R541) | antibiotic susceptibility S/I/R (host strain YMC17/02/R2392) | susceptibility category (S/I/R) (host strain YMC17/02/R2392) | antibiotic susceptibility S/I/R (host strain YMC17/03/B4730) | susceptibility category (S/I/R) (host strain YMC17/03/B4730) | antibiotic susceptibility S/I/R (host strain YMC17/03/B5000) | susceptibility category (S/I/R) (host strain YMC17/03/B5000) | antibiotic susceptibility S/I/R (host strain YMC17/03/P971) | susceptibility category (S/I/R) (host strain YMC17/03/P971) | antibiotic susceptibility S/I/R (host strain YMC17/03/R348) | susceptibility category (S/I/R) (host strain YMC17/03/R348) | antibiotic susceptibility S/I/R (host strain YMC17/03/R585) | susceptibility category (S/I/R) (host strain YMC17/03/R585) | antibiotic susceptibility S/I/R (host strain YMC17/03/R1888) | susceptibility category (S/I/R) (host strain YMC17/03/R1888) | antibiotic susceptibility S/I/R (host strain YMC17/03/R3279) | susceptibility category (S/I/R) (host strain YMC17/03/R3279) | antibiotic susceptibility S/I/R (host strain YMC17/03/R4077) | susceptibility category (S/I/R) (host strain YMC17/03/R4077) | antibiotic susceptibility S/I/R (host strain YMC17/03/R4607) | susceptibility category (S/I/R) (host strain YMC17/03/R4607) | antibiotic susceptibility S/I/R (host strain YMC17/04/R488) | susceptibility category (S/I/R) (host strain YMC17/04/R488) | antibiotic susceptibility S/I/R (host strain YMC17/04/R640) | susceptibility category (S/I/R) (host strain YMC17/04/R640) | antibiotic susceptibility S/I/R (host strain YMC/17/05/R1095) | susceptibility category (S/I/R) (host strain YMC/17/05/R1095)
4: antibiotic susceptibility value (host strain YMC17/02/B4864) | susceptibility test value (number given before S/I/R) (host strain YMC17/02/B4864)
S: antibiotic susceptibility S/I/R (host strain YMC17/02/B4864) | susceptibility category (S/I/R) (host strain YMC17/02/B4864)
128: antibiotic susceptibility value (host strain YMC17/02/B87) | susceptibility test value (number given before S/I/R) (host strain YMC17/02/B87) | antibiotic susceptibility value (host strain YMC17/02/B721) | susceptibility test value (number given before S/I/R) (host strain YMC17/02/B721) | antibiotic susceptibility value (host strain YMC17/02/B4039) | susceptibility test value (number given before S/I/R) (host strain YMC17/02/B4039) | antibiotic susceptibility value (host strain YMC17/02/B4520) | susceptibility test value (number given before S/I/R) (host strain YMC17/02/B4520) | antibiotic susceptibility value (host strain YMC17/02/B8414) | susceptibility test value (number given before S/I/R) (host strain YMC17/02/B8414) | antibiotic susceptibility value (host strain YMC17/02/P523) | susceptibility test value (number given before S/I/R) (host strain YMC17/02/P523) | antibiotic susceptibility value (host strain YMC17/02/R541) | susceptibility test value (number given before S/I/R) (host strain YMC17/02/R541) | antibiotic susceptibility value (host strain YMC17/02/R2392) | susceptibility test value (number given before S/I/R) (host strain YMC17/02/R2392) | antibiotic susceptibility value (host strain YMC17/03/B4730) | susceptibility test value (number given before S/I/R) (host strain YMC17/03/B4730) | antibiotic susceptibility value (host strain YMC17/03/B5000) | susceptibility test value (number given before S/I/R) (host strain YMC17/03/B5000) | antibiotic susceptibility value (host strain YMC17/03/P971) | susceptibility test value (number given before S/I/R) (host strain YMC17/03/P971) | antibiotic susceptibility value (host strain YMC17/03/R348) | susceptibility test value (number given before S/I/R) (host strain YMC17/03/R348) | antibiotic susceptibility value (host strain YMC17/03/R585) | susceptibility test value (number given before S/I/R) (host strain YMC17/03/R585) | antibiotic susceptibility value (host strain YMC17/03/R1888) | susceptibility test value (number given before S/I/R) (host strain YMC17/03/R1888) | antibiotic susceptibility value (host strain YMC17/03/R3279) | susceptibility test value (number given before S/I/R) (host strain YMC17/03/R3279) | antibiotic susceptibility value (host strain YMC17/03/R4077) | susceptibility test value (number given before S/I/R) (host strain YMC17/03/R4077) | antibiotic susceptibility value (host strain YMC17/03/R4607) | susceptibility test value (number given before S/I/R) (host strain YMC17/03/R4607) | antibiotic susceptibility value (host strain YMC17/04/R488) | susceptibility test value (number given before S/I/R) (host strain YMC17/04/R488) | antibiotic susceptibility value (host strain YMC17/04/R640) | susceptibility test value (number given before S/I/R) (host strain YMC17/04/R640) | antibiotic susceptibility value (host strain YMC/17/05/R1095) | susceptibility test value (number given before S/I/R) (host strain YMC/17/05/R1095)
